Key:
Format in all cases: cell-based
[1] = system: NCI-H524 non-small cell lung cancer cells; experiment: CellTiter-Glo luminescent cell viability assay, NCI-H524 drug screening plate; settings: for IC50: NCI-H524 cells, CellTiter-Glo
Experimental: (§1) In example 1, CELLTITER-GLO was used to test nicardipine against non-small cell lung cancer. n) NCI-H524 cells and NCI-H446 cells were handled as described above, and NCI-H524 96-well cell culture plates and NCI-H446 96-well cell culture plates were obtained, respectively. The complete medium for NCI-H524 cells was RPMI-1640 (a live product), Cat #A1049101, with a cells/well density of 16000. a) DMSO was used to dilute the analyte nicardipine to 20 mM for use. b) 79 μL of the 20 mM analyte prepared in step a) was added to the first well in the first row of the dilution plate, and then 54 μL of DMSO solution was added to the second through ninth wells of the first row. 25 μL of solution was aspirated from the first to the second well, and after mixing well 25 μL of solution was aspirated from the second to the third well, and this was repeated until the 9th well in order to ensure that 3.16 dilution of the medication would be carried out one-by-one. b) 95 μl of cell-specific complete medium was added to the working plate, each medication to 9 wells. […] Testing • a) Before testing, the NCI-H524 96-well drug screening plate and the NCI-H446 96-well drug screening plate described in 3 above were stabilized to room temperature for 20-30 minutes. • b) An inverted microscope was used to observe the conditions of each group of cells in the culture plate and their death patterns, and any abnormal conditions were noted and retested. • c) 100 μl of CellTiter-Glo reagent (prepared as described in 1 above) was added to all drug screening plates and mixed evenly. • d) It was thoroughly oscillated in a 96-well microplate oscillator for 2 minutes to allow the cells to undergo full lysis. • e) It was stored away from light at room temperature for 15 minutes before carrying out luminescent signal detection to ensure signal stability. • f) An EnSpire multi-function plate reader was used at 570 nm to read the luminescent signals. • g) Data was processed and analyzed.

[2] = system: NCI-H446 small-cell lung cancer cells; experiment: CellTiter-Glo luminescent cell viability assay, NCI-H446 drug screening plate; settings: for IC50: NCI-H446 cells, CellTiter-Glo
Experimental: as §1, with “for NCI-H446” for “for NCI-H524”, “of 8000.” for “of 16000.”

[3] = system: SNU-449 human hepatoma cells; experiment: CellTiter-Glo luminescent cell viability assay, SNU-449 cells (same method)
Experimental: (§2) In the examples below, the product sources for the NCI-H524 non-small cell lung cancer cells, the NCI-H446 small-cell lung cancer cells, the SNU-449 human hepatoma cells, and the NCI-H810 human lung cancer cells, are as follows: c) The NCI-H524 96 well cell plates and the NCI-H446 96-well cell plates prepared in step 1 were removed from the incubator, and 10 μl of the cell culture media (10× final concentration) with varying drug concentrations as described in b) above was added to the NCI-H524 96-well cell culture and the NCI-H446 96-well cell culture plate row-by-row as shown in FIG. 1. It was placed into a CO2 incubator at 37° C. for 72 hours, obtaining the NCI-H524 96-well drug screening plate and the NCI-H446 96-well drug screening plate. • a) The CellTiter-Glo reagent buffer was thawed before using and stabilized to room temperature for use. • b) The CellTiter-Glo reagent frozen substrate was thawed before using and stabilized to room temperature for use. • c) 100 ml of stabilized CellTiter-Glo buffer was added to the container with CellTiter-Glo reagent frozen substrate to adequately resuspend it to form an enzyme/substrate mixture, also referred to as the CellTiter-Glo assay reagent. • d) It was gently mixed and vortexed and inverted multiple times to achieve a uniform solution. In general, the CellTiter-Glo substrate reagent will adequately dissolve within 1 minute. […]

[4] = system: NCI-H810 human lung cancer cells; experiment: CellTiter-Glo luminescent cell viability assay, NCI-H810 cells (same method)
Experimental: as §2

IC50 ([1]; Homo sapiens, NCI-H524, 72 h): 18.6 µM | EC50 ([1]; Homo sapiens, FIG. 2, nicardipine sensitivity to non-small cell lung cancer (NCI-H524), 72 hours): 20.3 µM | IC50 ([1]; 72 hours): 18.6 µM | IC50 ([2]; Homo sapiens, NCI-H446, 72 h): 18.4 µM | EC50 ([2]; Homo sapiens, FIG. 3, nicardipine sensitivity to small cell lung cancer (NCI-H446), 72 hours): 18 µM | IC50 ([2]; 72 hours): 18.4 µM | IC50 [3]: ≥ 100 µM | IC50 [4]: ≥ 100 µM
SMILES: COC(=O)C1=C(C)NC(C)=C(C(=O)OCCN(C)Cc2ccccc2)C1c1cccc([N+](=O)[O-])c1 (centres unmarked) [nicardipine]

Reference: patent publication US12427139B2, “Applications for nicardipine in preparing anti-lung cancer products” (SHANGHAI JIAO TONG UNIVERSITY, priority 2015, dated 2025)
